Source: patent US10100079B2, “Progesterone-cationic lipid hybrid as anticancer agent and the process of synthesis thereof” (Council of Scientific & Industrial Research, priority 2016, dated 2018)

Columns and labels:
[1] = system: T47D; assay: Apoptosis by flow cytometry (annexin V-FITC/PI), T47D; format: cell-based, human; conditions: 10 μM, 36 h
Procedure: (§1) Apoptosis study was performed by flow cytometry using annexin V-FITC-labeled apoptosis detection kit (Sigma) following manufacturer's protocol. Cells (□×□□^□ cells/well) were seeded in six-well plates and incubate for 16-18 h. After 16-18 h, cells were either kept untreated or treated with 10 μM compound 1 and 10 μM 6c for 36 h. Next, cells were trypsinized and washed with PBS. Then the cells were re-suspended in 1× binding buffer at a density of 1×10^6 cells/ml and stained simultaneously with FITC-labeled annexin V (25 ng/ml) and propidium iodide (50 ng/ml). After 15 min incubation, cells were analyzed using a flow cytometer (FACS Canto II, Becton-Dickinson, San Jose, Calif., USA), and data were analyzed with FCS Express V3 software. Minimum of 10000 events were gated per sample.

[2] = system: B16F10; assay: Apoptosis by flow cytometry (annexin V-FITC/PI), B16F10; format: cell-based, murine; conditions: B16F10, 10 μM, 36 h
Procedure: as §1

[3] = system: CHO; assay: Apoptosis by flow cytometry (annexin V-FITC/PI), CHO; format: cell-based, Chinese hamster; conditions: 10 μM, 36 h
Procedure: as §1

[4] = system: apoptosis related protein in B16F10 cells; assay: Western blot of B16F10 cell lysates: apoptosis related protein (FIG. 4A); format: cell-based, murine; conditions: B16F10, 10 μM, 36 h
Procedure: (§2) For in vitro cell lysate preparation, B16F10 cells were either treated with compound 1 (10 μM), 6c (10 μM) or kept untreated for 36 h continuously. After that cells were washed with cold PBS for two times, and lysed by incubating for 30 min on ice with ice-cold RIPA lysis buffer (50 mM Tris [pH 7.5], 1% NP-40, 150 mM NaCl, 0.1% sodium dodecyl sulfate [SDS], 0.5% sodium deoxycholate) containing 1% proteinase inhibitor cocktails (PIC) (Cell Signaling Technology). Following 30 min of incubation cells were centrifuged at 14,000 rpm at 4° C. for 15 minutes, supernatant was collected, and Protein concentration was measured by using BCA assay a kit (thermo scientific). For in vivo whole cell lysate, after completion of the in vivo experiment one C57BL/6J mice with representative tumor size from each group was sacrificed and tumor was collected, lysed by ice-cold RIPA buffer with 1% PIC, whole cell lysate was prepared following the same steps as mentioned above. Respective cell lysates were run in SDS-PAGE gel (8%-15%) and then the bands were transferred to polyvinylidene fluoride (PVDF) membrane. Membranes were then first incubated with respective primary antibodies and then with alkaline phosphates conjugated secondary antibody (Goat-anti-rabbit and Goat-anti-mouse). Immunodetection was performed with BCIP/NBT substrate (Sigma-Aldrich).
(§3) Cytochrome-C (4272S), BAX (2772S), Bcl-2 (2876S), Cassepase-3 (9665S), β-actin (8457S), PI3K-p110α (4249S), PI3K-p85 (4257S), AKT (272S), p-AKT (4060S), PTEN (9552S), p-mdm2 (3521S), p53 (2524S), GAPDH (5174S) were purchased from Cell Signaling Technology; Casepase-9 (PA5-16358) was purchased from Pierce; mdm2 (ab38618) was purchased from Abcam; secondary antibodies mouse anti-rabbit IgG-PE (sc-3753) was purchased from Santa Cruz Biotechnology; Goat anti-mouse IgG Alkaline Phosphatase (DC05L) and goat anti-rabbit IgG Alkaline Phosphatase (DC06L) were purchased from Calbiochem.

[5] = system: PI3K/AKT pathway involving protein in B16F10 cells; assay: Western blot of B16F10 cell lysates: PI3K/AKT pathway involving protein (FIG. 4B); format: cell-based, murine; conditions: B16F10, 10 μM, 36 h
Procedure: as §2, §3

[6] = system: B16F10 tumor; assay: In vivo tumor study, B16F10 melanoma model; parameters: species or system C57BL6/J mice; conditions: 15 mg/Kg i.p., 5 injections
Procedure: 6-8 weeks old female C57BL6/J mice, obtained from CCMB (Hyderabad, India), were subcutaneously inoculated with 2.5×10^5 B16F10 cells in the lower left abdomen. Thirteen days after B16F10 cell inoculation, mice were grouped as per the treatment where each group contained 5 mice. The groups were as follows (i) untreated group, (ii) treated with progesterone (compound 1) (6 mg/Kg) and (iii) 6c (15 mg/Kg). Each compound suspended in PBS containing 10% DMSO and injected intraperitoneally to the respective mice. Five injections were given with a gap of 2 days. The tumor sizes were measured in volume (mm^3) and calculated using the formula (0.5ab^2), where ‘a’ represents the longest dimension and ‘b’ is the shortest dimension of the tumors. Experiment was terminated when the average tumor volume of the untreated group reached ˜4000 mm^3. All animal work was done following the protocols approved by Institutional Animal Ethical Committee of CSIR-IICT, India.

[7] = system: B16F10 tumor lysate proteins; assay: Western blot analysis with B16F10 tumor lysates (FIG. 5B); parameters: species or system C57BL/6J mice; conditions: B16F10 tumor lysate after in vivo treatment
Procedure: as §2, with “(Sigma-Aldrich). […]” for “(Sigma-Aldrich).”

CCCCCCCCCC[N+](C)(CCCCCCCCCC)CCNC(=O)CCC(=O)O[C@@H](C)[C@H]1CCC2C3CCC4=CC(=O)CC[C@]4(C)C3CC[C@@]21C (stereo partly drawn) [Compound 6c, N-decyl-N-(2-(4-((1S)-1-((10R,13S,17S)-10,13-dimethyl-3-oxo-2,3,6,7,8,9,10,11,12,13,14, 15,16,17-tetradecahydro-1H-cyclopenta[a]phenanthren-17-yl)ethoxy)-4-oxobutanamido)ethyl)-N-methyldecan-1-aminium chloride]
apoptotic cell [1]: 73%
apoptotic cell [2]: 53.22%
apoptosis in normal cell [3]: largely remains unaffected
BAX/Bcl-2 ratio compared to untreated group [4]: ~4 fold
caspase 3 expression [4]: increase in level
caspase 9 [4]: formation of active caspase 9
cytochrome C expression [4]: elevated expression
PTEN protein expression [5]: elevated expression
expression of catalytic and regulatory subunit of PI3K protein [5]: decrease in the expression
p53 expression level [5]: elevated the expression level
p-AKT level compared to PR treated group [5]: significant reduction
pMdm2 level [5]: reduced
tumor growth and aggression versus UT and progesterone-treated groups ([6]; B16F10 in C57BL6/J mice): significant inhibition
tumor size of UT group compared to treated group ([6]; day 25 from tumor cell inoculation): ~4 times
caspase 3 in tumor lysate [7]: increase
p53 expression level in tumor lysate [7]: significant increase
